Source: US12138320B2, “Composition and methods for tumor imaging and treatment” (The University of Chicago, priority 2020, dated 2024)

Assay: Radiochemical stability by radioactive HPLC
Type: physicochemical
Settings: physiologic buffers; PBS containing 10% ethanol, up to 120 min
Experimental: Stability analyses of HPLC-purified […]: Radiochemical stability testing of the synthesized [^18F]JW199, was performed with multiple HPLC injections using increasing amounts of activity to keep the peak heights roughly similar. 64 μCi was injected 83 minutes post synthesis, and this was considered the t=0 time point. The subsequent injection was 79 μCi at 30-minutes, followed by three more injections of 86, 106, and 117 μCi at 60, 90, and 120-minutes respectively.

Structure (SMILES): CC(C)c1ccccc1OC(=O)NCCc1ccc(OCC[18F])cc1 [[^18F]JW199, fluorine-18-labeled 2-isopropylphenyl-(4-(2-fluoroethoxy)phenethyl)carbamate]
- chemical stability: chemically stable
